Data on 13 compounds can be found in patent US8846351B2, “Compositions for enhancing hydroysis of cellulosic material by cellulolytic enzyme compositions” (Novozymes, Inc., priority 2010, dated 2014).

Data set [1] has as its system Trichoderma reesei cellulase composition. The format is biochemical. Conditions: AVICEL, 1 mM organic compound. The method, then: Microcrystalline cellulose was used as the source of cellulosic material.
The concentration of each organic compound was 1 mM.

The target in data set [2] is T. aurantiacus GH61A polypeptide (Thermoascus aurantiacus, UniProt G3XAP7, N13Y). Nature of the data set: PACE analysis of products from PASC incubated with organic compound, Ca(II) and T. aurantiacus GH61A polypeptide at various pH. The format is biochemical. The method, then:
Polysaccharide-analysis-using-carbohydrate-gel-electrophoresis (PACE) was applied to analyze the products from incubation of cellulose in the presence of Ca(II) and ascorbate, cysteine or gallic acid and the T. aurantiacus GH61A polypeptide.
The mixture was filtered, and the filtrate (90 μl) was subjected to PACE analysis as described below. Buffers were varied to obtain the following pH values: formic acid at pH 4, acetic acid at pH 5, triethylammonium acetate at pH 6-7, and ammonium acetate at pH 8-9.
Carbohydrate products from the reaction were derivatized with 8-aminonaphthalene-1,3,6-trisulfonic acid (ANTS) fluorophore, applied to a polyacrylamide gel, and subjected to PACE, according to protocols adapted from (Goubet et al, 2002, Analytical Biochemistry 300: 53-68). Briefly, the derivatization was conducted by first drying 45 μl of the reaction products in a Jouan RC1010 vacuum concentrator system (Jouan Inc., Vallensbaekvej, Denmark) at 40° C. for about 3 hours, then mixing the dried products with 5 μl of 0.2 M ANTS in 15% acetic acid and 5 μl of 1 M NaBH3CN in DMSO, incubation at 37° C. in a thermomixer overnight followed by exposure to air for about 30 minutes, and then drying in a vacuum concentrator at 40° C. for about 4 hours. The ANTS-labeled samples were mixed with 20 μl of 6 M urea prior to PACE analysis.
Gels were cast according to Goubet et al., 2002, supra. The electrophoresis was performed with an SE 660 vertical electrophoresis system (GE Healthcare, Park Alle, Denmark) in a Tris/Borate buffer system at 200 V for 30 minutes and then at 1000 V for almost 2 hours at +5° C., followed by visualization using a UVP BioImaging System (UVP, LLC, Upland, Calif., USA) with UV transilluminator (Wavelength 365 nm UV-A) and EpiChem Darkroom combined with a camera system using a SYBR Gold™ emission filter (Syngene, Cambridge, United Kingdom).
Densitometry was performed by visual definition of a minimal space containing the band of interest, and integration of total pixel intensity within the space using a series of MatLab® scripts (The Mathworks, Natick, Mass., USA).

The conditions of data set [3]: cited from earlier work.

Like-named read-outs stand apart in the source and are kept apart here.

Chain of T. aurantiacus GH61A polypeptide (G3XAP7 whole entry N13Y): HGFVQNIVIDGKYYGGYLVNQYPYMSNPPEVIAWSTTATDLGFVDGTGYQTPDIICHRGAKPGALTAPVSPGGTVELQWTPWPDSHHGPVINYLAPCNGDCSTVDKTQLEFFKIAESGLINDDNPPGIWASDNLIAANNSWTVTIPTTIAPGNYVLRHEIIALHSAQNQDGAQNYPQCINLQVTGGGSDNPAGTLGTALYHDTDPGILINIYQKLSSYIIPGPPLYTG

As to `O=C(O)c1ccc(O)c(O)c1` [3,4-dihydroxybenzoic acid], the “organic compound effect(no GH61)” value in data set [1] (pH 5.0, 50° C., 7 days) is 0.977±0.0208.

For `O=C(O)c1cc(O)cc(O)c1` [3,5-dihydroxybenzoic acid], the “organic compound effect(no GH61)” value in data set [1] (pH 5.0, 50° C., 7 days) was “greater than 1”.

Turning to `COc1cc(C=CC(=O)O)ccc1O` [4-hydroxy-3-methoxycinnamic acid], the “organic compound effect(no GH61)” value in data set [1] (pH 5.0, 50° C., 3 days) is on record as “below 1”; in data set [1] (pH 5.0, 50° C., 7 days), “approximately 1”.

Turning to `O=C(O)c1ccc(O)cc1` [4-hydroxybenzoic acid], the “organic compound effect(no GH61)” value in data set [1] (pH 5.0, 50° C., 3 days) is recorded as 0.959±0.0162; in data set [1] (pH 5.0, 50° C., 7 days) it was 0.961±0.0250.

In the case of `N[C@@H](CS)C(=O)O` [cysteine], in data set [2] (PASC, Ca(II), GH61A polypeptide, 50° C., pH at or above the pKa of the compound), the “products detected on PACE” value is “products similar to cellodextrins having 1-7 glucosyl units were detected”.

In the case of `O=C1OC(C(O)CO)C(=O)C1=O` (stereo not shown) [dehydroascorbate], the “organic compound effect(no GH61)” value in data set [1] (pH 5.0, 50° C., 3 days) is listed as 1.05±0.0058; in data set [1] (pH 5.0, 50° C., 7 days) it was 1.14±0.00522.

For `O=C(O)c1cc(O)c(O)c(O)c1` [gallic acid], the “PACE band intensity as a function of pH (densitometry)” value in data set [2] (cellodextrin bands of apparent DP 4, 8 and 9) is “increased in intensity with increasing pH”. In addition, the “PACE product bands at low pH” value in data set [2] (lowest pH examined, 3.9) is listed as “near zero”. Besides, the “shape of the increase of PACE band intensity with pH” value in data set [2] (pH range about 3.9 to 5.6) is “sharp increase in product intensity was noted between pH values of 4.5 and 5.5”. Besides, in data set [3], the pKa was 4.5.

In the case of `N[C@@H](CCC(=O)O)C(=O)O` [glutamic acid], the “organic compound effect(no GH61)” value in data set [1] (pH 5.0, 50° C., 3 days) was “below 1”; in data set [1] (pH 5.0, 50° C., 7 days), “above 1”.

With `COC(=O)c1cc(O)c(O)c(O)c1` [methyl-3,4,5-trihydroxybenzoate], the “organic compound effect(no GH61)” value is 0.989±0.0121 in data set [1] (pH 5.0, 50° C., 3 days) and 0.947±0.00189 in data set [1] (pH 5.0, 50° C., 7 days).

On to `COC(=O)c1ccc(O)cc1` [methyl-4-hydroxybenzoate], for which the “organic compound effect(no GH61)” value in data set [1] (time not specified (FIG. 1: 3 and 7 days)) was “slightly inhibited”.

For the compound `Oc1ccccc1O` [pyrocatechol], the “organic compound effect(no GH61)” value in data set [1] (pH 5.0, 50° C., 7 days) was 0.766±0.0361.

`Oc1cccc(O)c1O` [pyrogallol]: the “organic compound effect(no GH61)” value in data set [1] (pH 5.0, 50° C., 7 days) came out at 0.735±0.00518.

Consider `O=C(O)C(O)C(O)C(=O)O` (stereo not shown) [tartrate], for which the “organic compound effect(no GH61)” value in data set [1] (pH 5.0, 50° C., 3 days) is “below 1”; in data set [1] (pH 5.0, 50° C., 7 days) it was “below 1”.
